Source: paper PMC9734138, “Structure of the AlgKX modification and secretion complex required for alginate production and biofilm attachment in Pseudomonas aeruginosa” (Nature Communications, 2022)

Columns and labels:
[1] = target: T1, AlgXPp (Pseudomonas putida, UniProt Q88ND0); experiment: Direct nanoESI-MS binding assay of the single proteins with reference protein correction for nonspecific binding, 200 mM aqueous ammonium acetate pH 7, 25 °C by the table title (21 °C in the methods).; set-up: gene algX
Description: (§1) AlgXPp and AlgKPp stock solutions were buffer exchanged into 200 mM aqueous ammonium acetate (pH 7) using a 10 kDa cut-off Amicon 0.5 mL microconcentrators (EMD, Millipore, Billerica, MA). Stock solutions of oligosaccharides were prepared by dissolving a known amount of solid compound in Milli-Q water and stored at −20 °C until used. Nanoelectrospray (nanoESI) mass spectrometry measurements were performed on a Q Exactive Orbitrap (Orbitrap) mass spectrometer (Thermo Fisher Scientific, Bremen, Germany) and on a Q Exactive Ultra-High Mass Range Orbitrap mass spectrometer (Thermo Fisher Scientific, Bremen, Germany), both equipped with a nanoflow ESI source. NanoESI was performed by applying a voltage of ~0.8 kV to a platinum wire inserted into the nanoESI tip, which was produced from a borosilicate glass capillary (1.0 mm o.d., 0.78 mm i.d.) pulled to ~2 μm o.d. using a P − 1000 micropipette puller (Sutter Instruments, Novato, CA). The inlet capillary of the MS was heated to 120 °C, the S-lens RF level was set at 100, automatic gain control target was set at 1 × 10^6 with a maximum injection time of 200 ms. All MS data were acquired and processed using Thermo Xcalibur 4.1 software.
(§2) Association constants (Ka,kL and Ka,xL) for interactions of AlgKPp and AlgXPp with oligosaccharide ligands were obtained using the direct ESI-MS assay[68],[69]. The binding measurements were carried out at 21 °C, and the equilibrium mixtures were prepared by mixing aliquots of the stock solutions of proteins and ligands in aqueous ammonium acetate (200 mM). ESI-MS measurements were performed after a 1 h incubation time period. All mass spectra were corrected, when needed, for the occurrence of nonspecific carbohydrate-protein binding during the ESI process using the reference protein method. Ka,kL and Ka,xL values were determined from the abundance ratio (R) of the ligand-bound (PL) to free protein (P) ions (P can be AlgKPp or AlgXPp), after correction for nonspecific ligand binding, and the initial concentrations of protein ([P]0) and ligand ([L]0), Eq. (1):1 R/R+1=KaP0+KaL0+1−(1−KaL0+KaP0)^2+4KaL0/2KaP0 where R is taken to be equal to the corresponding equilibrium concentration ratio ([PL]/[P]) in solution, Eq. (2):2 R=∑Ab(PL)/∑Ab(P)=[PL]/[P] and Ka is Ka,kL or Ka,xL.
Target sequence in this assay (Q88ND0 whole entry): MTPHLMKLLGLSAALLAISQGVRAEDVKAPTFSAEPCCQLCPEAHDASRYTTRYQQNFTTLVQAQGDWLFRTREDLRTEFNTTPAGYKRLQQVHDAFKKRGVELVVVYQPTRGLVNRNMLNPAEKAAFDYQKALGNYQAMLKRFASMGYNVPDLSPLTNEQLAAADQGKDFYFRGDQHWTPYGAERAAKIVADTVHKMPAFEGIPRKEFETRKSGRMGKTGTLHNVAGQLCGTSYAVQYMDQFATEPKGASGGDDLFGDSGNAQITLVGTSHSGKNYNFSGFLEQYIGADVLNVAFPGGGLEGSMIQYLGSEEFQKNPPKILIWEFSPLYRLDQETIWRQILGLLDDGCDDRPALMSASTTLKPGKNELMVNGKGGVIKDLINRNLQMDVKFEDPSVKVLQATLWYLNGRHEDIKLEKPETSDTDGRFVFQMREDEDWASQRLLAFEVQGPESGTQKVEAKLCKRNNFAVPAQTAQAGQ

[2] = target: AlgKXPp (Pseudomonas putida, UniProt Q88NC7+Q88ND0); experiment: NanoESI-MS ligand titration of the AlgK-AlgX mixture, Ka,kxL fitted from the ligand-bound fraction of the complex with a coupled-equilibria model, 200 mM aqueous ammonium acetate pH 7, 25 °C by the table title (21 °C in the methods).; format: binding; details: n = 3
Description: as §1
(§3) The Ka,kx for the interaction of AlgKPp and AlgXPp with the formation of AlgKXPp complex was obtained using the Slow Mixing Mode (SLOMO) ESI-MS assay. Briefly, ~2 µL of a solution of AlgXPp (5 µM) and AlgKPp (3–10 µM) was introduced into the nanoESI tip, followed by injection of 10 µL of solution of AlgXPp (5 µM) and AlgKPp (45 µM). The binding measurements were carried out at 21 °C; time-resolved mass spectra were averaged over 1 min intervals and the sum of the charge state-normalized abundances of the […] and AlgKXPp complex ions were calculated automatically using the SWARM software (https://github.com/pkitov/CUPRA-SWARM)[72]. The corrected (for response factors) abundances of AlgXPp and AlgKXPp species were used to calculate R/(R+1) values for AlgKPp (designated as L) and AlgXPp (designated as P) interaction and association constant Ka,kx was found using Eq. (1) (Ka,kx in this case designated as Ka in Eq. (1)).
(§4) 3b AlgXPpL⇌AlgXPp+L,Ka,xL=[AlgXPpL]/AlgXPp[L] 3c AlgKXPp⇌AlgKPp+AlgXPp,Ka,kx=[AlgKXPpL]/AlgKPp[AlgXPp] 3d AlgKXPpL⇌AlgKXPp+L,Ka,kxL=[AlgKXPL]/AlgKXPpLL
(§5) The corresponding mass balance equations are shown below:4a [L]0=[L]+[AlgKPpL]+[AlgXPpL]+[AlgKXPpL] 4b [AlgKPp]0=[AlgKPp]+[AlgKPpL]+[AlgKXPp]+[AlgKXPpL] 4c [AlgXPp]0=[AlgXPp]+[AlgXPpL]+[AlgKXPp]+[AlgKXPpL] where […], […], and [L]0 are initial concentrations of AlgKPp, AlgXPp, and oligosaccharide ligand L; Ka,kL, Ka,xL, and Ka,kx are association constant values determined as described above, and Ka,kxL is unknown parameter found by the fitting of the model to experimental data.

[3] = target: AlgKPp (Pseudomonas putida, UniProt Q88NC7); experiment: Direct nanoESI-MS binding assay of the single proteins with reference protein correction for nonspecific binding, 200 mM aqueous ammonium acetate pH 7, 25 °C by the table title (21 °C in the methods).; set-up: gene algK
Description: as §1, §2

[4] = target: T2, AlgKXPp complex (Pseudomonas putida, UniProt Q88NC7+Q88ND0); experiment: ESI-MS alginate binding assay, AlgKXPp complex (binding model fit); details: AlgKPp and AlgXPp 5 µM each, ligand 100 µM, ammonium acetate 200 mM pH 7.0
T2 construct: Induced cells containing either pET26b P. putida AlgK^33–484 or pET24b P. putida AlgX^∆Nterm; His6 (C); made in house; host or cells: E. coli BL21 (DE3) CodonPlus (AlgK) and E. coli Lemo21 (DE3) (AlgX)
Description: as §1, §4, §5

[5] = target: T1, AlgXPp; experiment: Slow Mixing Mode (SLOMO) ESI-MS assay of AlgKPp-AlgXPp complex formation; format: binding; set-up: His6 (C); made in house; host or cells: E. coli Lemo21 (DE3); details: for Fraction of bound AlgX: mean, n = 3
Description: as §1, §3

[6] = read-out: Ka (M^-1) (AlgKPp), Ka (M^-1) (AlgXPp)

AlgKXPp, sequence (Q88ND0 whole entry, one chain of several): as the sequence (Q88ND0 whole entry) above

alginate heptasaccharide of alternating alpha-L-guluronate (G) and beta-D-mannuronate (M) [GMGMGMG]
Ka (M^-1) (AlgKPp); Ka (M^-1) (AlgXPp) [1]: (2.7 ± 0.3) × 10^2 M-1 | Ka (M^-1) (AlgKXPp) [2]: (18 ± 0.6) × 10^2 M-1

alginate hexasaccharide of alternating alpha-L-guluronate (G) and beta-D-mannuronate (M) [GMGMGM]
Ka (M^-1) (AlgKPp); Ka (M^-1) (AlgXPp) [3]: (2.5 ± 0.1) × 10^2 M-1 | Ka (M^-1) (AlgKPp); Ka (M^-1) (AlgXPp) [1]: (4.5 ± 1.0) × 10^2 M-1 | Ka (M^-1) (AlgKXPp) [2]: (12 ± 0.7) × 10^2 M-1

alginate hexasaccharide of alpha-L-guluronate (G) and beta-D-mannuronate (M), sequence GMGGMG
Ka (M^-1) (AlgKPp); Ka (M^-1) (AlgXPp) [3]: (3.0 ± 0.9) × 10^2 M-1 | Ka (M^-1) (AlgKPp); Ka (M^-1) (AlgXPp) [1]: (1.4 ± 0.3) × 10^2 M-1 | Ka (M^-1) (AlgKXPp) [2]: (5.4 ± 0.5) × 10^2 M-1

CCCO[C@@H]1O[C@H](C(=O)O)[C@@H](O[C@@H]2O[C@H](C(=O)O)[C@@H](O[C@@H]3O[C@H](C(=O)O)[C@@H](O[C@@H]4O[C@H](C(=O)O)[C@@H](O[C@@H]5O[C@H](C(=O)O)[C@@H](O[C@@H]6O[C@H](C(=O)O)[C@@H](O[C@@H]7O[C@H](C(=O)O)[C@@H](O)[C@H](O)[C@@H]7O)[C@H](O)[C@@H]6O)[C@H](O)[C@@H]5O)[C@H](O)[C@@H]4O)[C@H](O)[C@@H]3O)[C@H](O)[C@@H]2O)[C@H](O)[C@@H]1O [ManA7, heptamer of beta-D-mannuronic acid (1-4 linked, polyM heptasaccharide)]
Kd [3, 6]: 2380 µM | Kd [1, 6]: 3850 µM | Kd ([2]; read-out: Ka (M^-1) (AlgKXPp)): 1000 µM

pentadeca-hyaluronic acid [HA15, reference compound]
ligand binding to AlgKXPp detected by ESI-MS [4]: No ligand binding was detected | ligand binding to AlgKXPp detected by ESI-MS ([4]; listed as 15-mer of hyaluronic acid): no specific binding

B1: AlgKXPp: 1:1 complex of P. putida AlgK and AlgX (protein, UniProt Q88NC7 33-484; Q88ND0 25-479, looked up)
Alginate biosynthesis protein … 1: CAGLPDQRLANEALKRGDTALAERNYKALADLGYSEAQVGLADIKVATRDPSQIKEAEATYRAAAATSPRAQARLGRLLVAKPDSTQAEREEAETLLKQAAKQGQSNTLIPLAMLYLSYPQSFPKVNAQQQIDQWRAAGNPEAGLAQVLLYRTQGTYDQHLGEVEKICKAALNTTDICYVELATVYQKRGQADQQAALLGQLKSAYARGAVPATRVDSVARVLADRSLGQTDEKTAKELLEQVAPANPASWVSLAQLVYDFPELGDTDQLMAYIDKGREAEQPRAELLLGRLYYEGKTLPADAQKAEQHLQAAAEAGEISAHYYLGQLYRRGYLGNVEPQKAVDHLLAAARGGQNSADYALAQLFSEGHGIRPQPGNAWVFAQLSQANPTPQSAELLQQLDQQLTPDQRNQAQQLLDQEKRARGSLAQGANSTLALEALQDDEKEVDGEDSL
Alginate biosynthesis protein … 2: EDVKAPTFSAEPCCQLCPEAHDASRYTTRYQQNFTTLVQAQGDWLFRTREDLRTEFNTTPAGYKRLQQVHDAFKKRGVELVVVYQPTRGLVNRNMLNPAEKAAFDYQKALGNYQAMLKRFASMGYNVPDLSPLTNEQLAAADQGKDFYFRGDQHWTPYGAERAAKIVADTVHKMPAFEGIPRKEFETRKSGRMGKTGTLHNVAGQLCGTSYAVQYMDQFATEPKGASGGDDLFGDSGNAQITLVGTSHSGKNYNFSGFLEQYIGADVLNVAFPGGGLEGSMIQYLGSEEFQKNPPKILIWEFSPLYRLDQETIWRQILGLLDDGCDDRPALMSASTTLKPGKNELMVNGKGGVIKDLINRNLQMDVKFEDPSVKVLQATLWYLNGRHEDIKLEKPETSDTDGRFVFQMREDEDWASQRLLAFEVQGPESGTQKVEAKLCKRNNFAVPAQTAQAGQ
association constant (Ka) for 1:1 AlgKXPp complex formation ([5]; SLOMO ESI-MS, AlgXPp 5 µM, 21 °C): 8.9 ± 0.9 × 10^4 M^−1

B2: AlgK: P. putida KT2440 AlgK residues 33–484, His-tagged TPR-containing lipoprotein (protein)
chain: CAGLPDQRLAQEALERGDLATAQSNYQALAAMGYADAQVGLADMQVASGDSAQQAKAEKLYREAAQTSPRARARLGKWLAAKPGASDAEHREAERLLSQAFEQGEDSALVPLIVLYLQYPQSWPEIDPQQRIDQWRARGLPQADLAQIILYRTQGTYAQHLGEIEQVCQRWLRRMDVCWYELATVYQMQGNAEKQKVLLEQLRAAYKAGRVPGERVDSVAGVLADGELGQPDPQTAQALLEEIAPSYPAAWVSLAKLLYDYPDQGDLEKMLGYLKNAQDAAQPRAELLLGRLYYDGKWAPQDPRKAERHLLKAAASEPQANYYLGQIYRRGFLGKVYPQKAVDHLILAARAGQASADMALAQLWSQGRGIQPNRVNAYVFGQLAVQQQVPQASDLLGQIEAQLPPAERSQAQQLLKREQQSRGNNWQATVSLLQSQDSPINEEEPESL
Fraction of bound AlgX ([5]; concentration of AlgK 3 µM): 0.22 | Fraction of bound AlgX ([5]; concentration of AlgK 5 µM): 0.24 | Fraction of bound AlgX ([5]; concentration of AlgK 7.5 µM): 0.31 | Fraction of bound AlgX ([5]; concentration of AlgK 10 µM): 0.42
